Measured values as given in patent US11571407B2, “Bicalutamide analogs or (S)-bicalutamide as exocytosis activating compounds for use in the treatment of a lysosomal storage disorder or glycogenosis” (BCN PEPTIDES, S.A., priority 2013, dated 2023).
Marks after values point to notes of the source that are not given here.

What was measured:
[1] = system: fibroblasts from patients affected by different lysosomal storage diseases; experiment: Determination of lysosomal exocytosis (β-hexosaminidase activity in the culture medium); type: cell-based, human; conditions: for Increase in exocytosis (%), Median: Table 4 median over the patients' fibroblasts; for Increase in exocytosis (%), Median / Increase in exocytosis (%): 72 h
Method: (§1) Fibroblasts from thirteen patients affected by seven different lysosomal storage diseases (Fabry, Gaucher, Hurler, Niemann-Pick type A/B, Sanfilippo A, Sanfilippo B and Tay-Sachs) were cultured in DMEM (Dulbecco's modified Eagles medium) with 10% fetal bovine serum and in the presence of antibiotics (penicillin and streptomycin), at 37° C. with 5% CO2. All reagents were purchased from PAA Laboratories (Velizy-Villacoublay, France). The fibroblasts of the patients were selected on the basis of availability of fibroblasts and measurable residual activity. The use of human samples was approved by the Ethical Committee of Hospital Clinic, Barcelona
Fibroblasts cultured for 72 h in 24 well-plates in the presence or absence of bicalutamide, (S)-bicalutamide, (S)-bicalutamide analogs or (R)-bicalutamide at different concentrations in triplicate (10 nmol/L, 100 nmol/L, 1 μmol/L, 10 μmol/L, 50 μmol/L and 100 μmol/L), were rinsed with physiological saline. The cells were lysed by using 3 freeze-thaw cycles. Then protein concentration was determined by using the Lowry method. Protein lysates (10 μg) were seeded in 96-well plates and the enzymatic activity of the enzyme involved in each disease was determined in triplicate by means of fluorimetric artificial substrates: 4-methylumbelliferyl-α-N-sulphoglucosaminide for Sanfilippo A, 4-methylumbelliferyl-2-acetamido-2 deoxy-α-D-glucopyranoside for Sanfilippo B, 4-methylumbelliferyl-α-L-iduronide for Hurler, 4-methylumbelliferyl-N-acetyl-β-D-glucosaminide for Tay-sachs, 4-methylumbelliferyl-β-D-glucopyranoside for Gaucher, 4-methylumbelliferyl-α-Galactopiranosid for Fabry disease, and 6-hexadecanoylamino-4-methylumbelliferyl-P-colline for Niemann-Pick type AB. The activity of the enzyme β-hexosaminidase was assayed by using 4-methylumbelliferyl-2 acetamido-2 deoxy-β-D-glucopyranoside as artificial substrate [Annunziata et al., Study of influence of sex and age on human serum lysosomal enzymes by using 4-methylumbelliferyl substrates. Clin. Chim. Acta.
Lysosomal exocytosis was monitorized by measuring the enzymatic activity of the lysosomal enzyme β-hexosaminidase in the culture medium [Xu M, et al, δ-Tocopherol reduces lipid accumulation in Niemann-Pick type C1 and Wolman cholesterol storage disorders. […] The fibroblasts were previously treated with different concentrations of bicalutamide, (S)-bicalutamide or (R)-bicalutamide (10 nmol/L, 100 nmol/L, 1 μmol/L, 10 μmol/L, 50 μmol/L and 100 μmol/L) in triplicate in 24-well plates. At 0, 24, 48 and 72 hours, 30 μL of culture medium was aliquoted for the subsequent β-hexosaminidase activity assay.
Fibroblasts from two patients affected by Sanfilippo B and Hurler diseases were treated with different concentrations of bicalutamide (racemic mixture at increasing concentrations of 0.01, 0.1, 1, 10 and 100 μM). And the increase in lysosomal exocytosis was determined by analyzing the enzymatic activity of the lysosomal enzyme β-hexosaminidase in the culture medium.
Fibroblasts from thirteen patients affected by different lysosomal storage diseases (four Sanfilippo B disease patients with different genotypes, three Sanfilippo A disease patients with different genotypes, two Tay-Sachs disease patients with the same genotype, one Gaucher disease patient, one Niemann-pick type A/B disease patient, one Hurler disease patient, and one Fabry disease patient) were independently treated with different concentrations of (R)- and (S)-bicalutamide (50 and 100 μM) for 72 hours.

[2] = system: fibroblasts from patients affected by different lysosomal storage diseases; experiment: Cell viability, MTT assay; type: cell-based, human; parameters: key to Decrease of Cell Viability (%): N.S.: non significant decrease; conditions: for Decrease of Cell Viability (%): 72 h
Method: as §1
Fibroblasts of early passage (between 5 and 9 passages) were plated in 6- or 24-well plates depending on the test and were treated for 72 hours with increasing concentrations (10 nmol/L, 100 nmol/L, 1 μmol/L, 10 μmol/L, 50 μmol/L and 100 μmol/L) of bicalutamide (Sigma-Aldrich, St. Louis, USA) and (R)- and (S)-bicalutamide (Toronto Research Chemicals Inc., Toronto (Ontario), Canada). Cell viability was evaluated in each cell line for each concentration using the 3-[4,5-dimethylthiazol-2-yl]-2,5-diphenyl tetrazolium bromide (MTT) assay (Sigma-aldrich, St. Louis, USA) described by Sumantran V. N. Cellular chemosensitivity assays: an overview. Methods Mol. Biol. (2011), 731, 219-236.
Fibroblasts from thirteen patients with different lysosomal storage diseases (four patients affected by Sanfilippo B disease patients with different genotypes, three Sanfilippo A disease patients with different genotypes, two Tay-Sachs disease patients with the same genotype, one Gaucher disease patient, one Niemann-PickA/B disease patient, one Hurler disease patient and one Fabry disease patient) were independently treated with different concentrations of (R)- and (S)-bicalutamide (50 and 100 μM). Cell viability was evaluated for each treatment in each cell line using the MTT assay.

C[C@@](O)(CS(=O)(=O)c1ccc(F)cc1)C(=O)Nc1ccc(C#N)c(C(F)(F)F)c1 [(S)-BICALUTAMIDE (1), (2S)-N-[4-cyano-3-(trifluoromethyl)phenyl]-3-[(4-fluorophenyl)sulfonyl]-2-hydroxy-2-methylpropanamide]
Increase in exocytosis (%), Median ([1]; 50 μM): 114* % | Increase in exocytosis (%), Median ([1]; 100 μM): 124* % | Increase in exocytosis (%) ([1]; Table 4 patient 1, Sanfilippo B fibroblasts, 50 μM): N.S. | Increase in exocytosis (%) ([1]; Table 4 patient 1, Sanfilippo B fibroblasts, 100 μM): N.S. | Increase in exocytosis (%) ([1]; Table 4 patient 2, Sanfilippo B fibroblasts, 50 μM): N.S. | Increase in exocytosis (%) ([1]; Table 4 patient 2, Sanfilippo B fibroblasts, 100 μM): 166* % | Increase in exocytosis (%) ([1]; Table 4 patient 3, Sanfilippo B fibroblasts, 50 μM): N.S. | Increase in exocytosis (%) ([1]; Table 4 patient 3, Sanfilippo B fibroblasts, 100 μM): N.S. | Increase in exocytosis (%) ([1]; Table 4 patient 4, Sanfilippo B fibroblasts, 50 μM): 33* % | Increase in exocytosis (%) ([1]; Table 4 patient 4, Sanfilippo B fibroblasts, 100 μM): 28* % | Increase in exocytosis (%) ([1]; Table 4 patient 5, Sanfilippo A fibroblasts, 50 μM): 72* % | Increase in exocytosis (%) ([1]; Table 4 patient 5, Sanfilippo A fibroblasts, 100 μM): 39* % | Increase in exocytosis (%) ([1]; Table 4 patient 6, Sanfilippo A fibroblasts, 50 μM): 70* % | Increase in exocytosis (%) ([1]; Table 4 patient 6, Sanfilippo A fibroblasts, 100 μM): 64* % | Increase in exocytosis (%) ([1]; Table 4 patient 7, Sanfilippo A fibroblasts, 50 μM): 121* % | Increase in exocytosis (%) ([1]; Table 4 patient 7, Sanfilippo A fibroblasts, 100 μM): 109* % | Increase in exocytosis (%) ([1]; Table 4 patient 8, Tay-Sachs fibroblasts, 50 μM): N.S. | Increase in exocytosis (%) ([1]; Table 4 patient 8, Tay-Sachs fibroblasts, 100 μM): 127* % | Increase in exocytosis (%) ([1]; Table 4 patient 9, Tay-Sachs fibroblasts, 50 μM): N.S. | Increase in exocytosis (%) ([1]; Table 4 patient 9, Tay-Sachs fibroblasts, 100 μM): 124* % | Increase in exocytosis (%) ([1]; Table 4 patient 10, Gaucher fibroblasts, 50 μM): N.S. | Increase in exocytosis (%) ([1]; Table 4 patient 10, Gaucher fibroblasts, 100 μM): N.S. | Increase in exocytosis (%) ([1]; Table 4 patient 11, Niemann-Pick AB fibroblasts, 50 μM): 114* % | Increase in exocytosis (%) ([1]; Table 4 patient 11, Niemann-Pick AB fibroblasts, 100 μM): 60* % | Increase in exocytosis (%) ([1]; Table 4 patient 12, Hurler fibroblasts, 50 μM): 13629* % | Increase in exocytosis (%) ([1]; Table 4 patient 12, Hurler fibroblasts, 100 μM): 5949* % | Increase in exocytosis (%) ([1]; Table 4 patient 13, Fabry fibroblasts, 50 μM): 5402* % | Increase in exocytosis (%) ([1]; Table 4 patient 13, Fabry fibroblasts, 100 μM): 3432* % | cell cultures with significantly increased lysosomal exocytosis ([1]; thirteen patient fibroblast cultures, 50 and 100 μM, 72 hours): ten of the thirteen | Decrease of Cell Viability (%) ([2]; Table 3 patient 1, Sanfilippo B fibroblasts, 50 μM): 0% | Decrease of Cell Viability (%) ([2]; Table 3 patient 1, Sanfilippo B fibroblasts, 100 μM): 0% | Decrease of Cell Viability (%) ([2]; Table 3 patient 2, Sanfilippo B fibroblasts, 50 μM): 0% | Decrease of Cell Viability (%) ([2]; Table 3 patient 2, Sanfilippo B fibroblasts, 100 μM): 0% | Decrease of Cell Viability (%) ([2]; Table 3 patient 3, Sanfilippo B fibroblasts, 50 μM): 0% | Decrease of Cell Viability (%) ([2]; Table 3 patient 3, Sanfilippo B fibroblasts, 100 μM): 0% | Decrease of Cell Viability (%) ([2]; Table 3 patient 4, Sanfilippo B fibroblasts, 50 μM): 0% | Decrease of Cell Viability (%) ([2]; Table 3 patient 4, Sanfilippo B fibroblasts, 100 μM): N.S. | Decrease of Cell Viability (%) ([2]; Table 3 patient 5, Sanfilippo A fibroblasts, 50 μM): 0% | Decrease of Cell Viability (%) ([2]; Table 3 patient 5, Sanfilippo A fibroblasts, 100 μM): 0% | Decrease of Cell Viability (%) ([2]; Table 3 patient 6, Sanfilippo A fibroblasts, 50 μM): 0% | Decrease of Cell Viability (%) ([2]; Table 3 patient 6, Sanfilippo A fibroblasts, 100 μM): 0% | Decrease of Cell Viability (%) ([2]; Table 3 patient 7, Sanfilippo A fibroblasts, 50 μM): 0% | Decrease of Cell Viability (%) ([2]; Table 3 patient 7, Sanfilippo A fibroblasts, 100 μM): 0% | Decrease of Cell Viability (%) ([2]; Table 3 patient 8, Tay-Sachs fibroblasts, 50 μM): 0% | Decrease of Cell Viability (%) ([2]; Table 3 patient 8, Tay-Sachs fibroblasts, 100 μM): 0% | Decrease of Cell Viability (%) ([2]; Table 3 patient 9, Tay-Sachs fibroblasts, 50 μM): 0% | Decrease of Cell Viability (%) ([2]; Table 3 patient 9, Tay-Sachs fibroblasts, 100 μM): N.S. | Decrease of Cell Viability (%) ([2]; Table 3 patient 10, Gaucher fibroblasts, 50 μM): N.S. | Decrease of Cell Viability (%) ([2]; Table 3 patient 10, Gaucher fibroblasts, 100 μM): N.S. | Decrease of Cell Viability (%) ([2]; Table 3 patient 11, Niemann-Pick AB fibroblasts, 50 μM): N.S. | Decrease of Cell Viability (%) ([2]; Table 3 patient 11, Niemann-Pick AB fibroblasts, 100 μM): N.S. | Decrease of Cell Viability (%) ([2]; Table 3 patient 12, Hurler fibroblasts, 50 μM): 0% | Decrease of Cell Viability (%) ([2]; Table 3 patient 12, Hurler fibroblasts, 100 μM): 0% | Decrease of Cell Viability (%) ([2]; Table 3 patient 13, Fabry fibroblasts, 50 μM): 0% | Decrease of Cell Viability (%) ([2]; Table 3 patient 13, Fabry fibroblasts, 100 μM): 0% | decrease of cell viability (in words) ([2]; thirteen fibroblast cultures, 50 and 100 μM): did not show any significant decrease of cell viability
